How the values were obtained:
CD34^+ cells [1] = assay: Differentiative-phase culture (EPO and insulin, 5 additional days) of cells harvested from the proliferative phase, benzidine staining; type: cell-based, human; settings: for frequency of benzidine^pos cells after differentiative phase: independent of priming duration (either 8 or 13 days) with GFs plus the steroid, then EPO and insulin
Description: Light-density cells and CD34^+ cells were cultured for the proliferative phase in Iscove's modified Dulbecco's medium (IMDM, Mascia Brunelli, Milan, Italy) containing 20% of fetal bovine serum (FBS, Hyclone, Logan, Utah) and supplemented with Stem Cell Factor (SCF, 10 ng/mL) (Amgen, Thousand Oaks, Calif.), Erythropoietin (EPO, 1 u/mL) (Epoetina alfa, Dompe Biotec, Milan, Italy), Interleukin-3 (IL-3, 1 ng/mL) (Bouty, Milan, Italy), dexamethasone (10^−6 M) (Sigma), and estradiol (10^−6 M) (Sigma). Light-density and CD34^+ cells were seeded at a concentration of 10^6 and 10^5 cells/mL, respectively.
(§1) Cell morphology was analyzed according to standard criteria on cytocentrifuged (Shandon, Astmoor, England) smears stained with May-Grumwald-Giemsa. Hemoglobin-containing cells were identified by benzidine staining (S. H. Orkin, Proc. Natl. Acad. Sci. USA 72, 98-102 (1975)). The cell antigenic profile was analyzed by flow cytometry with a Coulter Elite ESP Cell Sorter (Coulter, Miami, Fla.) according to standard protocols. […] Cells incubated with the corresponding, irrelevant, isotype-matched antibodies were used for gating nonspecific fluorescence and dead cells were excluded by propidium iodide staining (5 μg/mL) (Sigma).
The total cell number observed in cultures of CD34^+ cells cultured for up to 14 days in the presence of the combination of SCF, IL-3 and EPO (growth factors, GFs), alone or with the further addition of estradiol or of dexamethasone, is presented in FIG. 1. In all three conditions analyzed, the total cell number per culture rose from 0.1×10^6 cells at day 0 to 10×10^6 at day 7 and continued to increase, reaching up to 100×10^6 by day 13. […] The total number of erythroid cells obtained at the end of the proliferative-plus-differentiative phase can be calculated by multiplying the total number of cells presented in FIG. 1 by the frequency of benzidinepos cells presented in FIG. 2. […]

CD34^+ cells [2] = assay: Proliferative-phase liquid culture of CD34+ cells (total cell number, benzidine staining); type: cell-based, human; settings: day 8 of proliferative phase; estradiol or dexamethasone added to GFs (SCF, IL-3, EPO)
Description: Light-density cells were collected, washed with Hank's basal salt solution supplemented with 1% (w/v) bovine serum albumin, and either cultured directly or cryopreserved in 10% dimethyl sulfoxide (Sigma, St. Louis, Mo.). Frozen cadaveric marrow cells obtained from Northwest Tissue Center, Puget Sound Blood Bank (Seattle, Wash.) were thawed, washed, and incubated overnight in IMDM with 10% fetal calf serum on tissue culture plates to remove adherent cells. […]
as §1, with “Hemoglobin-containing cells were identified by benzidine staining (S. H. Orkin, Proc. Natl. Acad. Sci. USA 72, 98-102 (1975)).” left out
The total cell number observed in cultures of CD34^+ cells cultured for up to 14 days in the presence of the combination of SCF, IL-3 and EPO (growth factors, GFs), alone or with the further addition of estradiol or of dexamethasone, is presented in FIG. 1. In all three conditions analyzed, the total cell number per culture rose from 0.1×10^6 cells at day 0 to 10×10^6 at day 7 and continued to increase, reaching up to 100×10^6 by day 13. […]

Structure (SMILES)	frequency of benzidine^pos cells after differentiative phase (CD34^+ cells [1])	percent of benzidine positive cells (mature erythroid cells) (CD34^+ cells [2]) [%]	total number of erythroid cells obtained at end of proliferative-plus-differentiative phase (CD34^+ cells [1]; differentiation started at day 8 of proliferative phase, total cell number multiplied by benzidine^pos frequency)
C[C@]12CC[C@@H]3c4ccc(O)cc4CC[C@H]3[C@@H]1CC[C@@H]2O [estradiol]	40-60%		
C[C@@H]1C[C@H]2[C@@H]3CCC4=CC(=O)C=C[C@]4(C)[C@@]3(F)[C@@H](O)C[C@]2(C)[C@@]1(O)C(=O)CO [dexamethasone]	80-95%	< 10	≤ 7×10^6 erythroid cells

From patent US20040229356A1, “In vitro mass production of human erythroid cells from the blood of normal donors and thalassemic patients” (ISTITUTO SUPERIORE DI SANITA, priority 2003, published 2004)
